{"source": "patent US20230392115A1", "about": "“METHODS FOR MAKING AND USING DIFFERENTIATED NEURAL CELLS” (Research Development Foundation, priority 2020, published 2023)", "key": {"[1]": {"test_system": "human embryonic stem cell line HS420", "assay": "Immunofluorescent staining for nestin, Pax-6, Sox-1 at day 8", "assay_type": "cell-based", "conditions": "0.2 μM", "method": "Cells on glass coverslips were fixed with 1 mL of 0.5% paraformaldehyde in PBS for 30 minutes at room temperature. Cells were then washed three times with 1 mL of PBS and incubated overnight with primary antibodies in PBS containing 0.1% Triton X-100 (Sigma), and 1% bovine serumalbumine (Sigma). Cells were washed three times with 1 mL of PBS before incubation for 1 h30 min with the secondary antibody in PBS containing 0.1% Triton X-100 and 1% bovine serumalbumine. Cells were washed three times with PBS before exposure to DAPI 300 nM in PBS (Sigma) for 15 minutes at room temperature. After three washes in PBS, cells were rinsed with water and mounted in glass slides using Fluorsave reagent (Merck Millipore). • 4. Quantitative RT PCR\nTo study the effects of ML347, DMH1, DMH2, K02288 and A8301 on PSC, the human embryonic stem cell line HS420 was used. Cells were plated at a low density on laminin 521 (10000/cm^2) in their maintenance medium (Stemflex) and exposed 24 h later to ML347, DMH1 or DMH2 or K02288 or A8301, during one week, at the concentration of 0.2 μM in a minimal medium suited for early neural induction. Once confluent (after 8 days), cells were passaged and plated in the same medium, without neural inductors, at the density of 50000/cm^2 polyornithine/Matrigel—coated tissue culture flasks for maturation (FIG. 2). […]"}, "[2]": {"assay": "ATP-based cytotoxicity assay (Cmax allowing 100% viability)", "conditions": "human, human embryonic pluripotent stem cell line HS420; HS420 cells; ATP quantification assay; read-out: Cmax (in vitro concentration allowing 100% of survival)", "source_text": "Multiple combinations between Noggin, LDN193189 and SB431542 are commonly used and generally called “dualSMAD inhibition”. It represents to date the most widely used way to induce early neural specification of PSC in vitro. Described herein is the report of a differentiation approach that excludes “dual Smad inhibition,” and instead achieves differentiation through the use of 5 chemicals inhibiting ALK to induce neural specification of pluripotent stem cells in vitro: ML347, DMH1, DMH2, K02288 and A8301 (Table 1). Table 1 indicates their name, PubChem ID and toxicity on the human embryonic Pluripotent Stem Cell line (ePSC) HS420, by using an ATP-based cytotoxicity assay. The Cmax was defined as the maximal concentration in vitro allowing 100% of viability of cells."}, "[3]": {"test_system": "human embryonic stem cell line HS420", "assay": "Morphology of embryonic stem cells after one week of exposure in neural induction medium", "assay_type": "cell-based", "conditions": "0.2 μM; for morphological modifications of embryonic stem cells: vs control (DMSO)", "method": "(§1) For neural differentiation, HS420 cells at 50% of confluency were passaged in new laminin 521-coated tissue culture plates at the density of 10000 cells/cm^2 in Stemflex medium supplemented with ROCK inhibitor (Y27632, abcam) at 10 μM. After 24 h, cells were submitted to a medium change, the Stemflex being replaced by the following neural induction medium: Neurobasal (Thermofisher) supplemented with penicillin/streptomycin 100 U/ml (Invitrogen), B-27 supplement (Thermofisher), L-glutamine 2 mM (Thermofisher). Cells were passaged at day 8 and subsequent confluency (every weeks), by the use of Accutase (Thermofisher) and replated on polyornithine/Matrigel (Sigma)-coated tissue culture flasks at the density of 50 000/cm^2. • 3. Immunocytochemistry\nTo study the effects of ML347, DMH1, DMH2, K02288 and A8301 on PSC, the human embryonic stem cell line HS420 was used. Cells were plated at a low density on laminin 521 (10000/cm^2) in their maintenance medium (Stemflex) and exposed 24 h later to ML347, DMH1 or DMH2 or K02288 or A8301, during one week, at the concentration of 0.2 μM in a minimal medium suited for early neural induction. Once confluent (after 8 days), cells were passaged and plated in the same medium, without neural inductors, at the density of 50000/cm^2 polyornithine/Matrigel—coated tissue culture flasks for maturation (FIG. 2)."}, "[4]": {"test_system": "HS420 cells", "assay": "Q-RT-PCR of regionalization markers (Otx-2, Lmxla, FoxA2, FoxG1, Msx-1) at day 8", "assay_type": "cell-based, human", "conditions": "0.2 uM, day 8, normalized to vehicle", "method": "FIG. 6: HS420 cells were exposed for 8 days to dual SMAD inhibition or ALK inhibitors at the concentration of 0.2 μM. Regionalization markers were measured by Q-RT-PCR and normalized with control conditions (no compounds, vehicle alone).\n(§2) Quantitative PCR was performed with Tecan Freedom Evo by using SYBR green fluorescence. cDNA was produced from RNA by using the prime script RT reagent kit (Takara). All primers were diluted at a concentration of 0.86 μM, and a master mix was used (Power SYBR Green Master Mix, Thermo Fisher Scientific).\nA possible impact of ALK inhibitors on early neural specification was analysed after 8 days of differentiation and compared with dual SMAD inhibition. Several markers of early specification, focusing on forebrain/midbrain regionalization were measured by Q-RT-PCR at day 8 in neural induction medium. The following markers were tested: Otx-2 which is an anterior marker (forebrain and midbrain), Lmxla which is expressed in dorsal and ventral midbrain, FoxA2 which is a ventral marker in forebrain, midbrain and hindbrain. Was also tested the forebrain FoxG1 and Msx-1 which is more specific for early dopaminergic differentiation. Several experiments were performed (n=3) and values were normalized as the percentage of control (=no compound, vehicle lone). At this early stage (day 8), FoxA2 and Msx-1 were not detected by PCR in all conditions, showing the absence of acquisition of a ventral and dopaminergic identity. […] The Hindbrain marker HoxA2 was not detected at this stage (not shown), showing the absence of a hindbrain identity (not shown). […] DMH1 and DMH2 reduce the forebrain identity, a useful prerequisite for dopaminergic specification."}, "[5]": {"test_system": "HS420 cells", "assay": "Neuronal maturation after passage (nestin-, βIII-tubulin+ cells)", "assay_type": "cell-based, human", "conditions": "cells previously exposed to ALKi 0.2 μM, passaged at day 8, maturation", "method": "FIG. 7: Neuronal maturation f HS420 cells (one month) exposed to ALKi versus dualSMAD inhibition.\nas §1\nAt confluency (occurring in these conditions at day 8), cells were passaged at a very low density with Accutase and polyornithine/Matrigel-coated dished for neuronal maturation in appropriated medium. Neuronal cells (nestin− and βIII-tubulin+ cells with a neuritic morphology) were present in cells previously exposed to the four compounds, in contrast to control conditions from which cells reduced progressively their number, with only few neuronal cells in the plate (FIG. 7)."}, "[6]": {"test_system": "human embryonic stem cell line HS420", "assay": "Q-RT-PCR of neuroectodermal markers (Pax-6, Sox-1, nestin) at day 8", "assay_type": "cell-based", "method": "FIG. 5: Quantification of neuroectodermal markers following exposition of HS420 cells one week with ALKi or dualSMAD inhibition. Results are expressed as the percentage of control condition (DMSO) in three independent experiments. The bars in each bar graph represent, from left to right, data from DMH-1, DMH-2, K02288, A8301, and LDN+SB.\nas §2\nQ-RT-PCR experiments were performed to provide a quantitative description of neural-inducing effects of the 4 compounds (in three independent experiments)."}}, "data": [{"molecule": "Cc1cccc(-c2nn(C(=S)Nc3ccccc3)cc2-c2ccnc3ccccc23)n1", "note": "[A8301, 3-(6-Methylpyridin-2-yl)-N-phenyl-4-(quinolin-4-yl)-1H-pyrazole-1-carbothioamide]", "values": [{"measurement": "expression of nestin, Pax-6 and Sox-1 by immunofluorescent staining", "setting": "[1]", "value": "homogeneously expressed nestin, Pax-6 and Sox-1"}, {"measurement": "Cmax", "setting": "[2]", "value": "5180 ± 1780", "unit": "nM"}, {"measurement": "epithelial-like cells spreading between the colonies", "setting": "[3]", "value": "invaded as a monolayer the free tissue culture plate between the colonies"}, {"measurement": "morphological modifications of embryonic stem cells", "setting": "[3]", "value": "showed morphological modifications"}, {"measurement": "FoxG1 expression (forebrain specification)", "setting": "[4]", "value": "upregulation of FoxG1"}, {"measurement": "neural induction with generation of cells able to mature into neurons", "setting": "[5]", "value": "favoured neural induction with the generation of cells able to be further maturated into neurons"}]}, {"molecule": "CC(C)Oc1ccc(-c2cnc3c(-c4ccnc5ccccc45)cnn3c2)cc1", "note": "[DMH1, 4-[6-(4-Propan-2-yloxyphenyl)pyrazolo[1,5-a]pyrimidin-3-yl]quinoline]", "values": [{"measurement": "Cmax", "setting": "[2]", "value": "970 ± 460", "unit": "nM"}, {"measurement": "morphological modifications of embryonic stem cells", "setting": "[3]", "value": "showed morphological modifications"}, {"measurement": "FoxG1 expression (forebrain specification)", "setting": "[4]", "value": "reduced FoxG1 expression"}, {"measurement": "neural induction with generation of cells able to mature into neurons", "setting": "[5]", "value": "favoured neural induction with the generation of cells able to be further maturated into neurons"}]}, {"molecule": "c1ccc2c(-c3cnn4cc(-c5ccc(OCCN6CCOCC6)cc5)cnc34)ccnc2c1", "note": "[DMH2, 4-(2-(4-(3-(Quinolin-4-yl)pyrazolo[1,5-a]pyrimidin-6-yl)phenoxy)ethyl)morpholine]", "values": [{"measurement": "Cmax", "setting": "[2]", "value": "580 ± 200", "unit": "nM"}, {"measurement": "morphological modifications of embryonic stem cells", "setting": "[3]", "value": "showed morphological modifications"}, {"measurement": "FoxG1 expression (forebrain specification)", "setting": "[4]", "value": "reduced FoxG1 expression"}, {"measurement": "neural induction with generation of cells able to mature into neurons", "setting": "[5]", "value": "favoured neural induction with the generation of cells able to be further maturated into neurons"}]}, {"molecule": "COc1cc(-c2cc(-c3cccc(O)c3)cnc2N)cc(OC)c1OC", "note": "[K02288, 3-[6-Amino-5-(3,4,5-Trimethoxyphenyl)pyridin-3-Yl]phenol]", "values": [{"measurement": "expression of nestin, Pax-6 and Sox-1 by immunofluorescent staining", "setting": "[1]", "value": "homogeneously expressed nestin, Pax-6 and Sox-1"}, {"measurement": "Cmax", "setting": "[2]", "value": "530 ± 250", "unit": "nM"}, {"measurement": "epithelial-like cells spreading between the colonies", "setting": "[3]", "value": "invaded as a monolayer the free tissue culture plate between the colonies"}, {"measurement": "morphological modifications of embryonic stem cells", "setting": "[3]", "value": "showed morphological modifications"}, {"measurement": "neural induction with generation of cells able to mature into neurons", "setting": "[5]", "value": "favoured neural induction with the generation of cells able to be further maturated into neurons"}]}, {"molecule": "c1ccc2c(-c3cnn4cc(-c5ccc(N6CCNCC6)cc5)cnc34)ccnc2c1", "note": "[LDN193189]", "values": [{"measurement": "expression of Pax-6, Sox-1 and nestin mRNAs compared to control", "setting": "[6]; 0.5 μM", "value": "increased the expression of Pax-6, Sox-1 and nestin mRNAs"}]}, {"molecule": "COc1ccc(-c2cnc3c(-c4cccc5ncccc45)cnn3c2)cc1", "note": "[ML347, 5-[6-(4 Methoxyphenyl)pyrazolo[1,5-a]pyrimidin-3-yl]quinoline]", "values": [{"measurement": "Cmax", "setting": "[2]", "value": "580 ± 200", "unit": "nM"}]}, {"molecule": "NC(=O)c1ccc(-c2nc(-c3ccc4c(c3)OCO4)c(-c3ccccn3)[nH]2)cc1", "note": "[SB431542, 4-(4-(Benzo[d][1,3]dioxol-5-yl)-5-(pyridin-2-yl)-1H-imidazol-2-yl)benzamide]", "values": [{"measurement": "Sox-1 mRNA", "setting": "[6]; alone at 10 μM", "value": "moderate increase"}, {"measurement": "expression of the three markers (Pax-6, Sox-1, nestin mRNAs)", "setting": "[6]; alone at 10 μM", "value": "did not increase the three markers"}]}, {"molecule": "Noggin: Noggin protein, BMP inhibitor, provided by Miltenyi Biotec (ref 130-103-456) (protein, UniProt Q13253 28-232, looked up) Noggin: QHYLHIRPAPSDNLPLVDLIEHPDPIFDPKEKDLNETLLRSLLGGHYDPGFMATSPPEDRPGGGGGAAGGAEDLAELDQLLRQRPSGAMPSEIKGLEFSEGLAQGKKQRLSKKLRRKLQMWLWSQTFCPVLYAWNDLGSRFWPRYVKVGSCFSKRSCSVPEGMVCKPSKSVHLTVLRWRCQRRGGQRCGWIPIQYPIISECKCSC", "values": [{"measurement": "effect on neuroectodermal marker mRNAs", "setting": "[6]; alone at 100 ng/ml", "value": "moderate effect"}]}]}
